Measurements from patent publication US20060148895A1, “New composition use and method” (priority 2002, published 2006).
Like-named read-outs stand apart in the source and are kept apart here.

What was measured:
[1] = Washing-out properties: residuals of Pres. (18) components after rinsing the housing; settings: to a 50 kg person
Procedure: In a safety evaluation it assumed that the entire volume of a housing is filled with the aqueous antimicrobial preservation composition as the worst case. […] (18). The housing was inserted in its device for extra-corporeal circulation treatment and rinsed with 900 ml of a Ringer-Acetate solution (Pharmacia, Inc) before clinical use. The residual concentration of the components of Pres. (18) after the rinsing procedure was then analyzed. The maximum concentrations found were below the detection limit: […]

[2] = 5 day covered contact in 50 human volunteers, cited from earlier work
[3] = neat ethyl paraben; cited from earlier work
[4] = healthy subjects; cited from earlier work
[5] = cited from earlier work
[6] = cited from earlier work; remark: listed apart in the source
[7] = after ingesting 2000 mg/day for 30 days; cited from earlier work
[8] = cited from earlier work; remark: listed apart in the source
[9] = cited from earlier work; remark: listed apart in the source
[10] = cited from earlier work; remark: listed apart in the source

| SMILES | Maximal intravenous dose from residuals [1] [mg/kg] | Skin irritation (human) ([2]; 7% solution in propylene glycol) | Eye irritation (rabbit) [3] | Skin sensitisation (human) [4] | Acute oral LD50 (Rat) [5] [mg/kg] | Repeated oral dose (Rat) - 25 weeks: signs of toxicity ([6]; diet containing 2% ethyl paraben, 25 weeks) | Repeated oral dose (human) [7] | Skin irritation (human) ([2]; 5% solution in Propylene glycol) | Eye irritation (human): time within which irritation and burning sensation disappeared ([8]; solutions containing 0.1-0.3% methyl paraben) | Acute oral LD50 (Mouse) [9] [mg/kg] | Intraperitoneal LD50 (Mouse) [10] [mg/kg] | Repeated oral dose (Rat) - 96 weeks: dose that gave no visible signs of toxicity or tissue changes in the major organs [6] | Skin irritation (human) ([2]; 12% solution in Propylene glycol) | Eye irritation (human) ([8]; solution containing 0.01% propyl paraben, contact time of 15 minutes in 60 patients) |
| --- | --- | --- | --- | --- | --- | --- | --- | --- | --- | --- | --- | --- | --- | --- |
| CCOC(=O)c1ccc(O)cc1 [Ethyl paraben] | <0.042 | glycol was non-irritant. (5 | slight irritation | No evidence of skin | >4300 | paraben gave no visible signs | – | – | – | – | – | – | – | – |
| COC(=O)c1ccc(O)cc1 [Methyl paraben] | 0.042 | – | – | No evidence of skin | – | – | No obvious toxic effects | glycol was non-irritant. (5 | disappeared within 1 minute | >8000 | 960 | 900-1200 mg/kg/day gave no | – | – |
| CCCOC(=O)c1ccc(O)cc1 [Propyl paraben] | <0.042 | – | – | – | – | – | – | – | – | >8000 | 640 | 900-1200 mg/kg/day gave no | glycol was non-irritant. (5 | propyl paraben produced no |
| CC(O)CO (stereo not drawn) [Propylene glycol] | <0.022 | – | – | – | – | – | – | – | – | – | – | – | – | – |
